The values that follow come from patent publication US20090036474A1, “Quinazoline derivatives for use against cancer” (priority 2004, published 2009).

pIC50: −log10 of the molar value.

The target of the assay is T1, PDGFRβ tyrosine kinase (Homo sapiens, UniProt P09619).
T1 construct: PDGFRα, PDGFRβ and KDR receptor cytoplasmic domains, obtained by expression of recombinant protein in insect cells; purchased Upstate Biotechnology Inc. 14-463; host or cells: Sf9 insect cells
Briefly: In vitro enzyme assay (ELISA), Test (a), PDGFRβ. The class given is biochemical. The note with it: ATP 2.8 μM, read-out: IC50 versus PDGFRβ tyrosine kinase. As for the experimental part: The ability of test compounds to inhibit the phosphorylation of a tyrosine containing polypeptide substrate by the tyrosine kinase enzymes PDGFRα, PDGFRβ and KDR was assessed using conventional ELISA assays. DNA encoding the PDGFRα, PDGFRβ or KDR receptor cytoplasmic domains may be obtained by total gene synthesis (International Biotechnology Lab., 1987, 5(3), 19-25) or by cloning. The DNA fragments may be expressed in a suitable expression system to obtain polypeptide with tyrosine kinase activity. For example, PDGFRα, PDGFRβ and KDR receptor cytoplasmic domains, obtained by expression of recombinant protein in insect cells, can be shown to display intrinsic tyrosine kinase activity. In the case of the VEGF receptor KDR (Genbank Accession No. L04947), a DNA fragment encoding most of the cytoplasmic domain, commencing with methionine 806 and including the termination codon may be cloned into a baculovirus transplacement vector [for example pAcYM1 (see The Baculovirus Expression System: A Laboratory Guide, L. A. King and R. D. Possee, Chapman and Hall, 1992) or pAc360 or pBlueBacHis (available from Invitrogen Corporation)]. This recombinant construct may be co-transfected into insect cells [for example Spodoptera frugiperda 21(Sf21) or Spodoptera frugiperda 9(Sf9)] with viral DNA (for example Pharmingen BaculoGold) to prepare recombinant baculovirus. […]

T1 sequence (P09619 554-1106 limits assumed): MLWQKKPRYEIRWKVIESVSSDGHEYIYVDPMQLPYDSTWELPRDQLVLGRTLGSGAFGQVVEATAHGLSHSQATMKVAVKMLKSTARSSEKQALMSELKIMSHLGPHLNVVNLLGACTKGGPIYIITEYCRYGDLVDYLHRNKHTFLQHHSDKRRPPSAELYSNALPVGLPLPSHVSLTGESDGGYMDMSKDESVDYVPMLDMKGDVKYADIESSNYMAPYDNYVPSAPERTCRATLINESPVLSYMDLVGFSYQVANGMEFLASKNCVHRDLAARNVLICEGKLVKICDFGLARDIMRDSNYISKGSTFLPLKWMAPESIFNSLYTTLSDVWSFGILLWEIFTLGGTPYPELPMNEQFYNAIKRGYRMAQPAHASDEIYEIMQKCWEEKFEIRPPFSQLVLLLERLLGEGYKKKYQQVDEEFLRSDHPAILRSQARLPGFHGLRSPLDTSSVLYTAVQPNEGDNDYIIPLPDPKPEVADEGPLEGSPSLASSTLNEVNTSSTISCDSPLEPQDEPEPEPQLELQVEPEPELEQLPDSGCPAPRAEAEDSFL

In the case of `COc1cc2ncnc(Oc3cnn(CC(=O)Nc4cccc5c4OCO5)c3)c2cc1OC` [Example 2, N-(2,3-methylenedioxyphenyl)-2-[4-(6,7-dimethoxyquinazolin-4-yloxy)pyrazol-1-yl]acetamide], the pIC50 is about 8.00.
